Assays:
HIV = settings: cited from earlier work
NF-KB = assay: NF-KB/SV40/SEAP reporter assay in Jurkat T-cells; assay type: cell-based; settings: NF-KB/SV40/SEAP/Neo Jurkat T-cells; 0.1, 1, 10 ng; positive control
Source text: NF-KB (Nuclear Factor KB) is a transcription factor activated by a wide variety of agents including the inflammatory cytokines IL-1 and TNF, CD30 and CD40, lymphotoxin-alpha and lymphotoxin-beta, by exposure to LPS or thrombin, and by expression of certain viral gene products. As a transcription factor, NF-KB regulates the expression of genes involved in immune cell activation, control of apoptosis (NF-KB appears to shield cells from apoptosis), B and T-cell development, anti-viral and antimicrobial responses, and multiple stress responses.
Due to its central role and ability to respond to a range of stimuli, reporter constructs utilizing the NF-KB promoter element are used to screen the fusion protein. Activators or inhibitors of NF-KB would be useful in treating, preventing, and/or diagnosing diseases. For example, inhibitors of NF-KB could be used to treat those diseases related to the acute or chronic activation of NF-KB, such as rheumatoid arthritis.
To construct a vector containing the NF-KB promoter element, a PCR based strategy is employed. The upstream primer contains four tandem copies of the NF-KB binding site ([…]) (SEQ ID NO: 48), 18 bp of sequence complementary to the 5′ end of the SV40 early promoter sequence, and is flanked with an XhoI site: […]

Compound: CC[C@H]1C(=O)Nc2ccc(F)cc2N1C(=O)OC(C)C [GW-420867×]
- activity relative to HBY097 (HIV): 25 fold

Compound: C[C@H](Sc1nc(N)cc(Cl)n1)c1cc2ccoc2cn1 [PNU-142721]
- activity relative to its predecessor delavirdine (HIV): 20- to 50 fold

Compound: Nc1nc(=O)n([C@@H]2CS[C@H](CO)O2)cc1F [emtricitabine]
- activity in vitro relative to lamivudine (3TC) (HIV; in vitro): 3- to 10 fold

Compound: TNF alpha
- activation (SEAP reporter activity) (NF-KB): 5-10 fold

Reference: patent publication US20030143191A1, “Chemokine beta-1 fusion proteins” (priority 2001, published 2003)
